Data: paper PMC9605737, “Identification of 6ω-cyclohexyl-2-(phenylamino carbonylmethylthio)pyrimidin-4(3H)-ones targeting the ZIKV NS5 RNA dependent RNA polymerase” (Frontiers in Chemistry, 2022)

What was measured:
[1] = Figure 3; ref Shen (2015); cited from earlier work
ZIKV NS5 protein = biological target: T1, ZIKV NS5 protein (Zika virus, UniProt A0A024B7W1); assay: Cell thermal shift assay (CETSA) with WB detection; format: binding; settings: 50 μM, lysate of ZIKV-infected Vero cells, 60 min; DMSO control 42.3°C
T1 construct: endogenous in cells; host or cells: Vero cells infected with ZIKV
T1 sequence (A0A024B7W1 2521-3423): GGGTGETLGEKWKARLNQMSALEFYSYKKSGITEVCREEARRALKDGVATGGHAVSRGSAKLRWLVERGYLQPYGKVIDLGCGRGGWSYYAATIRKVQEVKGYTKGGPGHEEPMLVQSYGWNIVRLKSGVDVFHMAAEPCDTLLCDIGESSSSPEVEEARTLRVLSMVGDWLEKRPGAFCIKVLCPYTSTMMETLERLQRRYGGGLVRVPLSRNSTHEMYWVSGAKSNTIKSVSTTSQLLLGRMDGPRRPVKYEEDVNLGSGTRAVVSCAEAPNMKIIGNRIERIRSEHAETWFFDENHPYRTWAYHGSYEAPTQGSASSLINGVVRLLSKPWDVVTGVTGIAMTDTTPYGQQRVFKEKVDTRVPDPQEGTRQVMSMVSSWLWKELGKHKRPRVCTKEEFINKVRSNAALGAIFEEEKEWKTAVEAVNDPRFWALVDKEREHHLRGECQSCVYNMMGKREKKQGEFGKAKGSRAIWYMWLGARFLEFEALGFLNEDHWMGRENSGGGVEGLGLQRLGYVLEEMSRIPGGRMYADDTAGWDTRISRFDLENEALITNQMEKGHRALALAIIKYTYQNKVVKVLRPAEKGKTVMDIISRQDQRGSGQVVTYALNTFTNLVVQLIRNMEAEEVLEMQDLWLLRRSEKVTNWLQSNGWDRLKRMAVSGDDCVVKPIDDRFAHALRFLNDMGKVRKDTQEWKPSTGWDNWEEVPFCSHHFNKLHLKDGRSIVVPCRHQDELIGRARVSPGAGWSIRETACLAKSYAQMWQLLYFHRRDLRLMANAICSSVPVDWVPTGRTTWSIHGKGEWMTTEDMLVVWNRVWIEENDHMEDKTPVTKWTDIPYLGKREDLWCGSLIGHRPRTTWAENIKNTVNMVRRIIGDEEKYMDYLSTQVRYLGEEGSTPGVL
Protocol: Cell thermal shift assay (CETSA) experiments are often used to detect the binding of intracellular drugs to target proteins. The assay was based on the principle of ligand-induced changes in protein thermal stability. The stability of the protein is evaluated by comparing the melting curves between the control group and the experimental group, thus assessing the interaction of the compound with the target protein.
Therefore, in order to further verify the interaction between 4w and ZIKV NS5, ZIKV-infected cell were treated with 4w (at 50 μM concentration), then total protein was incubation for 60 min at room temperature, and it was divided into nine equal parts. The same volume of DMSO was added as a control, and the treated protein was heated in a temperature gradient and then detected ZIKV NS5 protein by WB assay (Figure 5A).
Vero cells were inoculated in a 10 cm cell culture dish and cultured overnight, and after infection with ZIKV (MOI ≈2), maintenance medium was added to continue culturing for 3 days. Detergent-free protein lysis buffer (25 mM HEPES, 20 mM MgCl2, 2 mM DTT) was added, and cells were lysed by sonication. […] The supernatants were collected to prepare the samples, and the binding of 4w and ZIKV NS5 protein was analyzed by Western blotting ([Chen et al., 2020]; [Chen et al., 2021]).

ZIKV [2] = assay: Time of drug withdrawal experiment; format: cell-based, Zika virus; settings: 50 μM, drug withdrawal 4–6 h after dosing, viral load after 24 h
Protocol: (§1) ZIKV RdRp was a important domain in the C-terminal of ZIKV NS5, and plays a crucial role in the replication and synthesis of RNA in the life cycle of ZIKV. In order to further verify that 4w activity is related to RdRp domain inhibition, we examined the effect of 4w on the replication cycle of ZIKV using four different drug treatments and time-sharing withdrawal experiments (Figure 7A).
The virus was added to the cells and adsorbed for 2 h at 4°C, then the unabsorbed virus was washed away with pre-cooled PBS, and 50 μM 4w was added at the same time. Withdraw the drug at 1, 2, 4, 6, 8, and 12 h after dosing. The cell supernatant was collected for viral load detection after the maintenance medium continued to culture for 24 h.

[3] = MTT cytotoxicity assay in A549 cells; format: cell-based; settings: human
Protocol: (§2) MTT assay was used to detect the toxicity of the compound. Cells were seeded in 96-well plates and cultured overnight. Compounds with different concentrations were added and incubated for 96 h. Then, 20 μl of 5 mg/ml MTT (Sigma-Aldrich, United States) solution was added to each well and kept at 37°C for 4 h. Subsequently, 100 μl of 12% SDS-50% DMF (Sigma-Aldrich, United States) solution was added and incubated overnight at 37°C. After the crystalline formamidine was completely dissolved, the optical density (OD) value was measured using a microplate reader (BioTek, United States) with a wavelength of 570 nm and a reference wavelength of 630 nm.
(§3) The 50% effective concentration (EC50) and 50% cytotoxic concentration (CC50) of the compound were calculated according to the Reed and Muench method, inhibition rate of ZIKV RNA yield- [(1-drug treatment/positive control) × 100]. The data and graphs were processed using GraphPad Prism8 software, expressed as mean ± standard deviation (Mean ± SD), comparison between groups using ANOVA, p < 0.05 was considered statistically significant.

ZIKV RNA [4] = assay: qRT-PCR viral load in supernatant of ZIKV-infected A549 cells; format: cell-based; settings: Zika virus, A549, read-out: EC50, inhibition of ZIKV RNA replication
Description: (§4) In order to re-verify the inhibitory effect of 4w on ZIKV at the molecular level, we used ZIKV to infect cell lines of different origins (A549, Vero, Huh7 cells) and then treated with 4w in a concentration gradient. The change of viral load in the supernatant of cells after treatment was detected by qRT-PCR method.
(§5) Cells were infected with ZIKV SZ-WIV01 and then treated with 4w. The viral load in the supernatant was detected by Quantitative real-time polymerase chain reaction (qRT-PCR) at in different time periods after infection. Then the RNA from culture supernatant was extracted using the EasyPure ® Viral DNA/RNA Kit (TransGen Biotech, China) following the manufacturer’s instructions. Intracellular RNA extraction was according to trizol method. A one-step qRT-PCR kit RNA-direct™ Realtime PCR Master Mix (TOYOBO, Japan) and TaqMan probe were used to quantify the viral RNA produced. The primers (NS5 ZIKV 1086F: 5′-CCGCTGCCCAACACAAG-3′ and NS5 ZIKV 1086R: 3′-[…] C-5′) and probe (5′-FAM-[…]-TAMRA -3′) were used for amplification of the ZIKV NS5 region. A standard curve of the serial dilutions was used to quantify the viral RNA yield.
(§6) The 50% effective concentration (EC50) and 50% cytotoxic concentration (CC50) of the compound were calculated according to the Reed and Muench method, inhibition rate of ZIKV RNA yield- [(1-drug treatment/positive control) × 100]. […]

[5] = MTT cytotoxicity assay in Vero cells; format: cell-based, African green monkey; settings: African green monkey, triplicate, >200 = highest soluble concentration not reaching 50% cytotoxicity
Protocol: as §2, §3

[6] = MTT cytotoxicity assay in Huh7 cells; format: cell-based; settings: human
Protocol: as §2, §3

ZIKV [7] = assay: Four different methods of drug treatment (virus, co-, pre-, post-treatment); format: cell-based, Zika virus; settings: viral load
Description: as §1
As mentioned above ([Duan et al., 2019]; [Zou et al., 2020]), according to the different life cycles of the ZIKV, four different drug treatment methods are set: virus treatment, co-treatment, pre-treatment, post-treatment. For virus treatment, the ZIKV and 4w were pre-treated in a 4°C refrigerator for 1 h, then the treated virus was added to the cells for 2 h of infection, and the virus was discarded, washed twice with PBS, and added to maintenance medium (containing 2% FBS DMEM high sugar medium), continue to culture at 37°C, 5% CO2 incubator for 3 days, collect the cell supernatant for RT-PCR and plaque experiments. For co-treatment: add 4w and ZIKV to the cells at the same time, incubate at 37°C, 5% CO2 for 2 h, then remove the virus and compounds, add maintenance medium for 3 days. Pre-treatment: Compound 4w and cells were treated at 4°C for 1 h, then 4w was removed, ZIKV was added for 2 h, remove virus and the maintenance medium was added to continue culturing for 3 days. […]

ZIKV RNA [8] = assay: qRT-PCR viral load in supernatant of ZIKV-infected Huh7 cells; format: cell-based; settings: Zika virus, Huh-7, read-out: EC50, inhibition of ZIKV RNA replication
Description: as §4, §5, §6

CCc1c(C2CCCCC2)nc(SCC(=O)Nc2cc(F)cc(F)c2)[nH]c1=O [Compound 4w, 2-{[4-cyclohexyl-5-ethyl-6-oxo-1,6-dihydropyrimidin-2-yl]thio}-N-(3,5-difluorophenyl)acetamide]
CC50 [1]: > 10 µM
apparent aggregation temperature (Tagg) of ZIKV NS5 protein (ZIKV NS5 protein): 49.3 °C
effect of drug withdrawal on release of progeny virus (ZIKV [2]): significantly inhibit the release of progeny virus
CC50 at 96 h [3]: > 200 µM
EC50 (ZIKV RNA [4]): 5.18 ± 0.69 µM
CC50 at 96 h [5]: > 200 µM
CC50 at 96 h [6]: > 200 µM
stage of the ZIKV replication cycle acted on (ZIKV [7]): mainly acts on the post-entry stage of the virus
EC50 (ZIKV RNA [8]): 6.76 ± 0.52 µM
